Measurements from ChEMBL document CHEMBL1201862, “PubChem BioAssay data set” (2004).
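Five concentrations, 48 hours, 96-well plates. GI50 is the concentration that inhibits growth by half.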 The source made the active and inactive calls. Rule as the data show it: active = GI50 up to about 1.1 µM and inactive = higher.

How the values were obtained:
Assay in all cases: inhibition of tumour cell growth, NCI panel, 48 h
[1] = test system: CAKI-1
[2] = test system: SK-OV-3
[3] = test system: RPMI-8226
[4] = test system: SW-620
[5] = test system: TK-10
[6] = test system: SNB-75
[7] = test system: Malme-3M
[8] = test system: CCRF-CEM
[9] = test system: K562
[10] = test system: ACHN
[11] = test system: SK-MEL-5
[12] = test system: COLO 205
[13] = test system: HOP-62
[14] = test system: 786-0
[15] = test system: OVCAR-8
[16] = test system: OVCAR-3
[17] = test system: SR
[18] = test system: HCT-15
[19] = test system: NCI/ADR-RES
[20] = test system: MCF7

Measured: GI50

C=C(Br)N(CC)CC
> 100 µM: [18]
inactive: [1] > 100 µM | [2] > 100 µM | [3] > 100 µM | [4] > 100 µM | [5] > 100 µM | [6] > 100 µM | [7] > 100 µM | [8] > 100 µM | [9] > 100 µM | [10] > 100 µM | [11] > 100 µM | [12] > 100 µM | [13] > 100 µM | [14] > 100 µM | [15] > 100 µM | [16] > 100 µM | [17] > 100 µM

CC(=O)N1C/C(=C\c2ccccc2)C(=O)/C(=C/c2ccccc2)C1
8.38 µM: [18]
inactive: [1] 17.6 µM | [2] 22.5 µM | [4] 2.67 µM | [5] 18.2 µM | [6] 20 µM | [7] 18.3 µM | [8] 2.82 µM | [9] 2.89 µM | [10] 16.9 µM | [11] 6.19 µM | [12] 17.6 µM | [13] 11.4 µM | [14] 15.6 µM | [15] 7.8 µM | [16] 6.43 µM | [17] 2.99 µM
active: [3] 0.415 µM

CN(C)C(=S)N=C(Nc1ccccc1)Nc1ccccc1
> 100 µM: [18]
inactive: [1] > 100 µM | [2] > 100 µM | [3] > 100 µM | [4] > 100 µM | [5] > 100 µM | [6] 91 µM | [7] > 100 µM | [8] > 100 µM | [9] > 100 µM | [10] > 100 µM | [11] > 100 µM | [12] > 100 µM | [13] > 100 µM | [14] > 100 µM | [15] > 100 µM | [16] > 100 µM | [17] > 100 µM

OCc1c(-c2cccc3ccccc23)sc(-c2cccc3ccccc23)c1CO
14.7 µM: [18]
inactive: [2] 15.2 µM | [3] 6.9 µM | [4] 15.6 µM | [5] 13.1 µM | [6] 14.3 µM | [7] 12.2 µM | [8] 6.41 µM | [9] 6.5 µM | [10] 12.3 µM | [11] 11.3 µM | [12] 11.6 µM | [13] 13 µM | [14] 14 µM | [15] 13 µM | [16] 13.4 µM | [17] 13.5 µM

COc1cc([C@@H]2c3cc4c(cc3[C@@H](NCc3ccccc3)C3COC(=O)[C@@H]32)OCO4)cc(OC)c1O (some centres not stated)
inactive: [1] 2.24 µM | [2] 6.52 µM | [3] 3.8 µM | [4] 8.57 µM | [5] 26 µM | [6] 6.21 µM | [7] 11.2 µM | [8] 3.13 µM | [9] 16.6 µM | [10] 1.17 µM | [11] 11.8 µM | [12] 27.2 µM | [13] 4 µM | [14] 3.47 µM | [15] 10.8 µM | [16] 17.8 µM
6.34 µM: [18]
active: [17] 0.345 µM

c1ccc(NC[Si]23OCCN(CCO2)CCO3)cc1
inactive: [1] > 100 µM | [2] > 100 µM | [3] > 100 µM | [4] > 100 µM | [5] > 100 µM | [6] > 100 µM | [7] > 100 µM | [8] > 100 µM | [9] > 100 µM | [10] > 100 µM | [11] > 100 µM | [12] > 100 µM | [14] > 100 µM | [15] > 100 µM | [16] > 100 µM | [17] > 100 µM

NC(=S)N/N=C/C(O[C@@H](/C=N/NC(N)=S)CO)n1cnc2c(N)ncnc21 (some centres not stated)
inactive: [1] > 100 µM | [2] > 100 µM | [3] > 45 µM | [4] > 38 µM | [5] > 100 µM | [6] > 52.4 µM | [7] > 100 µM | [8] 37.2 µM | [9] > 54.7 µM | [10] > 100 µM | [11] 44.6 µM | [12] > 49.8 µM | [13] > 100 µM | [14] > 58.2 µM | [15] > 91.2 µM | [16] > 55.3 µM | [17] > 100 µM
> 42.3 µM: [18]

O=[N+]([O-])c1ccc(Sc2c3ccccc3nc3cc(Cl)ccc23)cc1
> 10 µM: [18]
inactive: [1] > 10 µM | [2] > 10 µM | [3] > 100 µM | [4] > 10 µM | [5] > 10 µM | [6] 27.9 µM | [7] > 10 µM | [8] 32.9 µM | [9] > 10 µM | [10] > 10 µM | [11] > 10 µM | [12] > 10 µM | [13] > 10 µM | [14] > 10 µM | [15] > 10 µM | [16] > 10 µM | [17] 25.7 µM

C[C@@H](CO)C1=C(O)C(=O)c2c(ccc3c2CCCC3(C)C)C1=O
inactive: [1] 44.9 µM | [2] 61.9 µM | [3] 23 µM | [4] 28.3 µM | [5] 45.4 µM | [6] 40 µM | [7] 15.9 µM | [8] 3.33 µM | [19] 38.8 µM | [9] 30.3 µM | [10] 18.5 µM | [11] 30.5 µM | [12] 38.3 µM | [13] 29.2 µM | [14] 55.3 µM | [15] 35.2 µM | [16] 28.2 µM
29 µM: [18]

CO[C@H](C(=O)O[C@H]1C(=O)N2CCC3CCC1C32C)c1ccccc1 (some centres not stated)
inactive: [1] > 100 µM | [2] > 100 µM | [3] > 100 µM | [4] > 100 µM | [6] > 100 µM | [7] > 100 µM | [8] > 100 µM | [9] > 100 µM | [10] > 100 µM | [11] > 100 µM | [12] > 100 µM | [13] > 100 µM | [14] > 100 µM | [15] > 100 µM | [16] > 100 µM | [17] > 100 µM
> 100 µM: [18]

O=C(O/N=C1/CCC/C1=C\c1ccccc1)c1ccccc1
inactive: [1] > 100 µM | [2] > 100 µM | [3] 50.5 µM | [4] > 100 µM | [5] > 100 µM | [6] 47.5 µM | [7] > 100 µM | [8] 48.8 µM | [9] 38.7 µM | [10] > 100 µM | [11] 44.6 µM | [12] > 100 µM | [13] > 100 µM | [14] > 100 µM | [15] 88.7 µM | [16] > 100 µM | [17] 44.4 µM
59.6 µM: [18]

CC1(C)OC[C@@H](O)[C@H](Br)CO1
inactive: [1] > 100 µM | [2] > 100 µM | [3] 67.3 µM | [4] > 100 µM | [5] > 100 µM | [6] > 100 µM | [7] > 100 µM | [8] > 100 µM | [9] 79.8 µM | [10] > 100 µM | [12] > 100 µM | [13] > 100 µM | [14] > 100 µM | [15] > 100 µM | [16] > 100 µM | [17] > 100 µM | [20] > 100 µM
> 100 µM: [18]

CC(=O)Oc1c2c(c(OC(C)=O)c3c1n(C(C)=O)c1ccccc1n3C(C)=O)n(C(C)=O)c1ccccc1n2C(C)=O
inactive: [1] 10.9 µM | [2] 23.6 µM | [3] 2.48 µM | [4] 1.94 µM | [6] 11.5 µM | [7] 2.38 µM | [8] 2.5 µM | [9] 2.86 µM | [10] 9.16 µM | [11] 7.76 µM | [13] 8.17 µM | [14] 3.46 µM | [15] 2.95 µM | [16] 1.92 µM | [17] 2.62 µM
3.27 µM: [18]

COc1cc(C2c3cc4c(cc3C(NCC(O)CO)C3COC(=O)[C@H]23)OCO4)cc(OC)c1OC (some centres not stated)
inactive: [5] > 100 µM | [7] > 100 µM
2.45 µM: [18]
active: [2] 0.422 µM | [3] 0.321 µM | [4] 0.51 µM | [6] 0.318 µM | [8] 0.407 µM | [9] 0.361 µM | [10] 0.69 µM | [12] 0.184 µM | [13] 0.221 µM | [14] 0.578 µM | [15] 0.429 µM | [17] 0.177 µM

COc1c(-c2nc3ccc(N4CCN(C)CC4)nc3[nH]2)cc(OC)c2c1nc(CCl)n2C
inactive: [1] 16.6 µM | [2] 28.8 µM | [3] 10.5 µM | [4] 20.9 µM | [6] 12.6 µM | [7] 17.5 µM | [8] 25.2 µM | [19] 56.9 µM | [9] 29 µM | [10] 13.7 µM | [12] 14.4 µM | [13] 21.4 µM | [14] 17.9 µM | [15] 20.1 µM | [16] 28.1 µM
26.3 µM: [18]

COc1cc2cnc3c4cc(OCc5ccccc5)ccc4ccc3c2cc1OC
inactive: [1] 26.7 µM | [2] 12.7 µM | [3] 2.96 µM | [4] 54.3 µM | [5] 16.1 µM | [6] 3.94 µM | [7] 36.3 µM | [8] 2.81 µM | [9] 10.4 µM | [10] 46.7 µM | [11] 17.4 µM | [12] 18.5 µM | [13] 18.9 µM | [14] 12.1 µM | [15] 18.2 µM | [16] 40.6 µM | [17] 4.5 µM
70.1 µM: [18]
